Test [1] relates to Human influenza A virus subtype /PR/8/34 H1N1. In words: microbe, parasite or virus in culture. Format: cell-based, Influenza A/PR/8/34 (H1N1). The following applies: MDCK.
Another test has as its system H1N1 virions. Format: binding, Influenza A virus (H1N1).
For test [2], the system named is Candida albicans (ATCC# 96133). In words: microbe, parasite or virus in culture. The following applies: ATCC96133, read-out: IC50 value, adhesion inhibition.
Test [3] has as its system Escherichea coli (ATCC# 53499). In words: microbe, parasite or virus in culture. The following applies: Escherichia coli, ATCC53499, read-out: IC50 value, adhesion inhibition.

Several values for one entry are separate records, joined by “and”; a condition that tells them apart may be missing. Identical values can stand only once. Entries after “also recorded” stand apart in the source; their conditions may differ.

Take `NC12CC3CC(CC(C3)C1)C2` [Amantadine]: the IC50 in test [1] was 4.7 µg/mL and 27 µM.
On the same count and under the same terms, the result for `CCOC(=O)C1=C[C@@H](OC(CC)CC)[C@H](NC(C)=O)[C@@H](N)C1` [Oseltamivir] reads 0.1 µg/mL and 320 nM.
Take `O=C1c2c(O)cc(O)cc2OC(c2cc(O)c(O)c(O)c2)C1O` (stereo not drawn) [Tristenonol aglycone, 3,5,7-Trihydroxy-2-(3,4,5-trihydroxyphenyl)-chroman-4-one]: the “direct binding to H1N1 virus surface” value in the test with H1N1 virions is reported as “does bind directly to the virus surface; also recorded: bound to the H1N1 virus surface”. Further, the IC50 in test [2] is 89.1 µM; in test [3], 60 µM; in test [1], 2.8 µg/mL and 5.4 µM.

Values taken from patent US20090092624A1, “Antiinfective Flavononol Compounds and Methods of Use Thereof” (priority 2007, published 2009).
